Laboratory results: patent US20070219220A1, “Pyrazolopyrimidinethione Derivatives, Salts and Solvates Thereof, Preparation Methods and Use Thereof” (priority 2003, published 2007)
Marks after values point to notes of the source that are not given here.

Tests used:
rats with testis removed = experiment: Penile erection caused by stimulating electric current in rats with testes removed (Example 7); assay type: in vivo, wistar rats; conditions: for Latent period / Swelling time: stimulation 35 min after administration
Text: Methods: Forty healthy adult male wistar rats were used in the study, with the body weight ranging from 230 g to 250 g. The rats were anesthetized with sodium pentobarbital, and their testes were squeezed into the scrotum. After sterilization, the scrotum was dissected with an operation knife. The testes and epididymis were taken out respectively and then ligated. The wound were sutured and 100,000 unit of penicillin was administrated to each rat for three consecutive days. After breeding for one week, the rats were used for the tests. The animals may be used repeatedly and the interval between any two of the tests was one week. […] Sildenafil at the dose of 50 mg/kg was used as the positive control. The control group is (1% sodium carboxymethyl cellulose). In 35 min after the administration, the penis of the rats was stimulated with SEN-3201 stimulator (NIHON KOHDEN, Japan), with the following parameters: the stimulating voltage of 10V, the time interval (T1) of 250 msec, the deferment time (T2) of 10 msec, the duration (T3) of 500 μsec, and the stimulation rank (n) of 25. At the same time, the latent period (sec) of the penile erection and the penile swelling time (min) were recorded with a three-channel stop-watch.

mice with testis removed = experiment: Sexual function (back climbing) of testis-removed mice (Example 10); assay type: in vivo, KM mice; conditions: for Incidence: back climbing within 2 hours after administration; for Times of back climbing / Number of the animals who performed back climbing: within 2 hours after administration; for Number of the animals who performed back climbing: 10 male mice
Text: Methods: Forty healthy KM male mice with the body weight ranging from 28-32 g and forty healthy KM female mice with body weight ranging from 24-28 g were used. Each male mouse was anesthetized with sodium pentobarbital, and the testes were squeezed into the scrotum. After sterilization, the scrotum was dissected with an operating knife. The testes and epididymis were respectively taken out, and then ligated. The wound were sutured and each of the mice was administrated with 100,000 units of penicillin for three consecutive days. After being bred for one week, the mice were used for the tests. The animals may be employed repeatedly and the interval between any two tests was 72 hours. To the mice, the following compounds were orally administered: compound (1), compound (2), compound (3), and compound (4), each at the dose of 80 mg/kg and 40 mg/kg, respectively. The positive control agent was Sildenafil, at the dose of 80 mg/kg. The control group was given with 1% of sodium carboxymethyl cellulose. At 30 min after the administration, the male mice who had taken the above agents were put into the cages of female mice, with the male-to-female rate of 1:1. There were three males and three females in each cage. The times of back climbing on the female mice performed by the male mice, and the percentage of occurrence were observed within 2 hours after the administration.

anesthetized dogs = experiment: Blood pressure, heart rate and respiration of anesthetized dogs (Example 11); assay type: in vivo; conditions: oral 40 mg/kg; in 3 hours after administration
Experimental: Methods: eight healthy male dogs with the body weight ranging from 12-15 kg were used. The dogs were anesthetized with 30 mg/kg of sodium pentobarbital. The femoral artery was dissected and inserted with a blood pressure transducer to record the blood pressure. The limbs were pierced with electrodes for recording the electrocardiogram. The respiration belt was wrapped around their chest and the respiration rate was recorded. The apparatus used was RM-6000 Polygraph system (NIHON KOHDEN, Japan). The changes in the arterial blood pressure, the heart rate, and the respiration were observed after the test compound was introduced into the stomach of the anesthetized dogs via 14# catheter.

anesthetized rats = experiment: Blood pressure and heart rate of anesthetized rats (Example 12); assay type: in vivo, wistar rats
Experimental: Forty male wistar rats with the body weight ranging from 220-240 g were used in the study. Pharmaceuticals: compound (2) and Sildenafil, which were ground and then suspended with 1% of sodium carboxymethyl cellulose. Apparatus: RM-6000 eight-graph system (NIHON KOHDEN, Japan). The doses for administration and the division of the groups: solvent control group (abbreviated as the control group), 20 mg/kg of compound (2), 40 mg/kg of compound (2), 80 mg/kg of compound (2), and 50 mg/kg of Sildenafil. The administration route is through dodecadactylon. Methods: the male wistar rats were taken out and anesthetized with 35 mg/kg of sodium pentobarbital by injecting into the abdominal cavity, on the basis of their body weight. The rats were fixed on the operation table and were performed with the dissection operation of right carotid artery. The catheter with an external diameter of 1 mm was inserted into the right carotid artery. The blood pressure was measured and the electrodes positioned on the skin of the four limbs were used to record the electrocardiogram limb lead II. The catheter with an external diameter of 2 mm was inserted into the dodecadactylon via incision of the epigastric region, for the administration of the pharmaceuticals. RM-6000 eight-graph system (NIHON KOHDEN, Japan) was employed to record. Observation time: the value before administration, the values at 15, 30, 60, 120 and 180 min after the administration.

[1] = Preliminary acute toxicity, Bliss method (Example 13); conditions: rat, in vivo, oral and intragastric administration, rats
Experimental: Experimental methods: the toxicity test was conducted by oral and intragastric administration of the pyrazolopyrimidinethione derivatives of the invention using the Bliss method.

[2] = 20 mg/kg through dodecadactylon, at 15 min after administration
[3] = 20 mg/kg through dodecadactylon, at 30 min after administration
[4] = 20 mg/kg through dodecadactylon, at 60 min after administration
[5] = 20 mg/kg through dodecadactylon, at 120 min after administration
[6] = 20 mg/kg through dodecadactylon, value before administration
[7] = 40 mg/kg through dodecadactylon, at 15 min after administration
[8] = 40 mg/kg through dodecadactylon, at 30 min after administration
[9] = 40 mg/kg through dodecadactylon, at 60 min after administration
[10] = 40 mg/kg through dodecadactylon, at 120 min after administration
[11] = 40 mg/kg through dodecadactylon, value before administration
[12] = 80 mg/kg through dodecadactylon, at 15 min after administration
[13] = 80 mg/kg through dodecadactylon, at 30 min after administration
[14] = 80 mg/kg through dodecadactylon, at 60 min after administration
[15] = 80 mg/kg through dodecadactylon, at 120 min after administration
[16] = 80 mg/kg through dodecadactylon, value before administration
[17] = 20, 40 and 80 mg/kg through dodecadactylon

In the case of CCCc1nn(C)c2c(=S)[nH]c(-c3cc(S(=O)(=O)N4C[C@@H](C)N[C@@H](C)C4)ccc3OCC)nc12 [Compound (2), 5-[2-ethoxy-5-(cis-3,5-dimethylpiperazin-1-sulfonyl)phenyl]-1-methyl-3-n-propyl-1,6-dihydro-7H-pyrazolo[4,3-d]pyrimidin-7-thione], the “penile swelling time (in words)” value (rats with testis removed; compared with control) is reported as “lengthened”, the “latent period of the penile erection (in words)” value (rats with testis removed; compared with control, P<0.001) is reported as “evidently shortened” and the “penile swelling time compared with positive control sildenafil (in words)” value (rats with testis removed; compared with sildenafil 50 mg/kg) is reported as “more evident”. The Latent period (rats with testis removed; oral 10 mg/kg) was 29.5 ± 4.2 s, the Swelling time (rats with testis removed; oral 10 mg/kg) was 1069.8 ± 621.5 s and the Latent period (rats with testis removed; oral 20 mg/kg) was 29.5 ± 4.2 s. It also gave a Swelling time (rats with testis removed; oral 20 mg/kg) of 1480.5 ± 469.7 s, a Latent period (rats with testis removed; oral 40 mg/kg) of 30.1 ± 3.9 s and a Swelling time (rats with testis removed; oral 40 mg/kg) of 2675.5 ± 769.2 s. For the same compound, the Incidence (mice with testis removed; oral 40 mg/kg) was 60%, the “Times of back climbing” value (mice with testis removed; oral 40 mg/kg, 40 mg/kg) was 11* and the “Number of the animals who performed back climbing” value (mice with testis removed; oral 40 mg/kg) was 6*. For the same compound, the “Times of back climbing” value (mice with testis removed; oral 40 mg/kg, listed as compound (2), 40 mg/kg) was 11, the Incidence (mice with testis removed; oral 80 mg/kg) was 80% and the “Times of back climbing” value (mice with testis removed; oral 80 mg/kg, 80 mg/kg) was 20**. The “Number of the animals who performed back climbing” value (mice with testis removed; oral 80 mg/kg) was 8**, the “Times of back climbing” value (mice with testis removed; oral 80 mg/kg, listed as compound (2), 80 mg/kg) was 20 and the “arterial blood pressure (systolic and diastolic), heart rate and respiration (frequency and depth), in words” value (anesthetized dogs) was “did not experience an evident change”. It also gave a Heart rate (anesthetized rats; [2]) of 440 ± 29.7 times/min, a Systolic pressure (anesthetized rats; [2]) of 132 ± 29.5 mmHg and a diastolic pressure (anesthetized rats; [2]) of 108 ± 29.7 mmHg. For the same compound, the Heart rate (anesthetized rats; [3]) was 440 ± 29.6 times/min, the Systolic pressure (anesthetized rats; [3]) was 134 ± 29.6 mmHg and the diastolic pressure (anesthetized rats; [3]) was 104 ± 29.6 mmHg. It also gave a Heart rate (anesthetized rats; [4]) of 436 ± 22.9 times/min, a Systolic pressure (anesthetized rats; [4]) of 128 ± 22.9 mmHg and a diastolic pressure (anesthetized rats; [4]) of 101 ± 22.9 mmHg. The Heart rate (anesthetized rats; [5]) was 428 ± 22.6 times/min, the Systolic pressure (anesthetized rats; [5]) was 127 ± 22.6 mmHg and the diastolic pressure (anesthetized rats; [5]) was 102 ± 22.6 mmHg. The Heart rate (anesthetized rats; 20 mg/kg through dodecadactylon, before administration) was 445 ± 25.1 times/min, the Systolic pressure (anesthetized rats; [6]) was 134 ± 7.2 mmHg and the diastolic pressure (anesthetized rats; [6]) was 109 ± 14.1 mmHg. It also gave a Heart rate (anesthetized rats; [7]) of 422 ± 29.7 times/min, a Systolic pressure (anesthetized rats; [7]) of 130 ± 29.7 mmHg and a diastolic pressure (anesthetized rats; [7]) of 109 ± 29.7 mmHg. For the same compound, the Heart rate (anesthetized rats; [8]) was 427 ± 29.6 times/min, the Systolic pressure (anesthetized rats; [8]) was 134 ± 29.6 mmHg and the diastolic pressure (anesthetized rats; [8]) was 109 ± 29.6 mmHg. It also gave a Heart rate (anesthetized rats; [9]) of 425 ± 22.9 times/min, a Systolic pressure (anesthetized rats; [9]) of 122 ± 22.9 mmHg and a diastolic pressure (anesthetized rats; [9]) of 109 ± 22.9 mmHg. It also gave a Heart rate (anesthetized rats; [10]) of 424 ± 22.6 times/min, a Systolic pressure (anesthetized rats; [10]) of 133 ± 22.6 mmHg and a diastolic pressure (anesthetized rats; [10]) of 112 ± 22.6 mmHg. It also gave a Heart rate (anesthetized rats; 40 mg/kg through dodecadactylon, before administration) of 429 ± 42.8 times/min, a Systolic pressure (anesthetized rats; [11]) of 129 ± 13.6 mmHg and a diastolic pressure (anesthetized rats; [11]) of 109 ± 14.4 mmHg. It also gave a Heart rate (anesthetized rats; [12]) of 439 ± 29.7 times/min, a Systolic pressure (anesthetized rats; [12]) of 121 ± 29.7 mmHg and a diastolic pressure (anesthetized rats; [12]) of 102 ± 29.7 mmHg. It also gave a Heart rate (anesthetized rats; [13]) of 442 ± 29.6 times/min, a Systolic pressure (anesthetized rats; [13]) of 123 ± 29.6 mmHg and a diastolic pressure (anesthetized rats; [13]) of 97 ± 29.6 mmHg. The Heart rate (anesthetized rats; [14]) was 436 ± 22.8 times/min, the Systolic pressure (anesthetized rats; [14]) was 121 ± 22.9 mmHg and the diastolic pressure (anesthetized rats; [14]) was 96 ± 22.9 mmHg. For the same compound, the Heart rate (anesthetized rats; [15]) was 438 ± 22.6 times/min, the Systolic pressure (anesthetized rats; [15]) was 119 ± 22.6 mmHg and the diastolic pressure (anesthetized rats; [15]) was 94 ± 22.6 mmHg. The Heart rate (anesthetized rats; 80 mg/kg through dodecadactylon, before administration) was 439 ± 22.6 times/min, the Systolic pressure (anesthetized rats; [16]) was 126 ± 12.1 mmHg and the diastolic pressure (anesthetized rats; [16]) was 102 ± 12.0 mmHg. The “effect on the heart rate (in words)” value (anesthetized rats; [17]) was “did not exhibit an evident effect”, the “effect on the systolic pressure and diastolic pressure (in words)” value (anesthetized rats; [17]) was “did not exhibit an evident effect” and the LD50 [1] was > 3000 mg/kg.
